This note sets out measurements from patent US20260242350A1, “POLYCYCLIC THYROID HORMONE BETA RECEPTOR AGONIST AND USE THEREOF” (CASCADE PHARMACEUTICALS, INC., priority 2023, published 2026).

One assay deals with T1, THRβ (pGAL4-THRβ-LBD) (Homo sapiens, UniProt P10828).
T1 construct: expressed in transfected cells; host or cells: HEK293T
T1 sequence (P10828 217-461): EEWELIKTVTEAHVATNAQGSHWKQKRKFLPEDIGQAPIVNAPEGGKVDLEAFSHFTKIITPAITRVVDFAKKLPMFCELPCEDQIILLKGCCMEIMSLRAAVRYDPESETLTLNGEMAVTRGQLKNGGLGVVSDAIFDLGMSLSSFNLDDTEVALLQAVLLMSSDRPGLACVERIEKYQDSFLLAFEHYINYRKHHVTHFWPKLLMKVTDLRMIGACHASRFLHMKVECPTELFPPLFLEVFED
Description: Reporter gene (Dual-Glo luciferase) agonist activity assay in HEK293T cells, THRβ. In kind it is cell-based. The following applies: ratio of EC50 THRα/THRβ. The source says: Experimental Example 2: Detection of Agonist Activities of Compounds Against THRα and THRβ Based on Reporter Gene Activity Assay Method
1.1 Construction and Preparation of Plasmids pGAL4-THR-LBD and pG5-Luc
The pGAL4-THRα-LBD and pGAL4-THRβ-LBD plasmids used in the reporter gene assay system were constructed by a conventional molecular cloning method comprising the following main steps: the cDNA sequences of THRα (NM_003250) and THRβ(NM_000461) corresponding to the amino acid sequences of THRα (163-407AA) and THRβ(217-461AA) were inserted into the BamHI and NotI enzyme digestion sites of the pGAL4 vector by the PCR technique respectively to obtain the pGAL4-THRα-LBD and pGAL4-THRβ-LBD plasmids; the pG5-Luc (#E249A) and pRL-TK (#E2241) plasmids were purchased from Promega; the plasmids were transfected into the E. coli DH5a by the CaCl2 method, and after further culture and amplification, the plasmids were purified by Plasmid Extraction Kits (TIANGEN, #D107) to obtain the corresponding plasmid DNAs.
1.2 Co-Transfection of Plasmids into HEK293T Cells and Treatment with Compounds
The HEK293T cells were inoculated into a 96-well plate at a density of 1×10^4/well the day before plasmid transfection. Cell transfection was conducted according to the instructions of the transfection reagent FuGENE® HD (Promega, #E2311). The main steps were as follows: taking one well as an example here, the plasmids pGAL4-THRα-LBD or pGAL4-THRβ-LBD, pG5-Luc, and pRL-TK were added in the proportions of 20 ng, 50 ng, and 5 ng to 10 μL of Opti-MEM™ I medium (Gibco, #11058021) and mixed well; subsequently, 0.25 μL of FuGENE® HD was added, mixed well, and then left at room temperature for 5 min; afterwards, […] was added to the cell wells containing 100 μL of culture medium. After cell co-transfection for 6 h, the compound was diluted in a 3-fold gradient with dimethyl sulfoxide at the highest concentration of 1 μM. The compound was added to the cell culture medium at a total of 10 concentrations for treatment for 24 h. There were a total of two duplicate wells for each concentration. Triiodothyronine (T3) was used as the positive control.
1.3 Dual-Glo Luciferase Assay
After the cells were treated with the compound for 24 h, the cells were assayed according to the instructions of Dual-Glo® Luciferase Assay System (Promega, #E2940). The main steps were as follows: 50 μL of culture medium was aspirated from each well and discarded, and then 50 μL of Dual-Glo® Luciferase reagent was added and oscillated at room temperature for 10 min; 80 μL of lysis reaction solution was measured into a white opaque optiPlate-96-well plate, and the luminescence signal value (Firefly-Luc) of the Firefly luciferase was detected using an MD i3x multi-mode microplate reader; 40 μL of Dual-Glo® Stop & Glo® reagent was then added, and oscillated at room temperature for 10 min; the luminescence signal value (Renilla-Luc) of the Renilla luciferase was then detected using an MD i3x multi-mode microplate reader. The Firefly-Luc/Renilla-Luc ratio was used as the activation activity of the compound against THR, and was normalized against the ratio in the vehicle DMSO group; the dose-response curve was fitted with four parameters using the GraphPad Prism6.0 software, and the EC50 value was calculated.
In general terms: A reporter such as luciferase makes a cellular process visible.

Assay [1] deals with T2, THRβ LBD (His-GST-dLBT-THRβLBD) (Homo sapiens, UniProt P10828).
T2 construct: made in house; host or cells: E. coli BL21 (DE3)
T2 sequence (P10828 217-461 limits assumed): T1 sequence (P10828 217-461)
Briefly: THR-FRET (time-resolved fluorescence resonance energy transfer) agonist activity assay, THRβ. In kind it is biochemical. The settings on record: for EC50: 24 h at room temperature; for Selectivity (THRα/THRβ): ratio of EC50 THRα/THRβ. The source says: (§1) Experimental Example 1: Detection of Agonist Activities of Compounds Against THRα/β Based on Time-Resolved Fluorescence Resonance Energy Transfer (THR-FRET)
(§2) 1. Construction of THRα/β Overexpression Vectors
(§3) By visiting NCBI, the THRα/β LBD domain sequences were found. The pET21-His-GST-dLBT-THRα LBD and pET21-His-GST-dLBT-THRβLBD overexpression vectors were constructed by the fusion method, and sequenced to confirm the accuracy of the sequences.
(§4) 2. Prokaryotic Expression of Recombinant Proteins in E. coli
(§5) The THRα LBD and THRβLBD overexpression vectors confirmed by sequencing were transfected into E. coli cells BL21 (DE3), and spread on an ampicillin-resistant agar plate. Monoclones were picked out and amplified in an LB medium, and transferred into 1 L LB at a ratio of 1:100 for large-scale culture. When the OD value was at 0.8 to 1.2, 0.5 mM isopropyl-beta-D-thiogalactopyranoside (IPTG) was added, and induced overnight at 18° C. The bacteria were harvested, disrupted, and purified via the GST column and the molecular sieve to obtain two proteins His-GST-dLBT-THRα LBD and His-GST-dLBT-THRβLBD.
(§6) 3. Preparation of Compounds and Formulation of Reaction System
(§7) The proteins were taken out from a refrigerator at −80° C. The protein s with the GST-tagged THRα/p LBD domain and the Eu-labelled GST antibodies were thawed slowly on ice, and an assay buffer containing a final concentration of 5 mM dithiothreitol (DTT) was formulated.
(§8) 3.1 Preparation of Compounds
(§9) The starting concentration of the compound was 10 μM (in DMSO). The compound (100 μM in DMSO) was subjected to 3-fold isogradient dilution with DMSO to obtain a total of 11 isogradient concentrations. Subsequently, the above compounds at the isogradient concentration were further subjected to 50-fold dilution with an assay buffer containing 5 mM DTT.
(§10) 3.2 Formulation of THR-FRET Reaction System
(§11) The final concentrations of all components were calculated based on a system with a final volume of 20 µL per well. To […] of assay buffer containing 5 mM DTT, the GST-tagged THRα/β proteins, the SRC2 ([…]) polypeptide, XL665 (Cisobio, #610SAXLB), and the Eu-labeled GST antibody were added, and the final concentrations were 2 nM, 200 nM, 0.05 nM, and 7.6 nM respectively to formulate 18 μL of reaction mixture of the proteins, polypeptide, and antibody per well.
(§12) 18 μL of reaction mixture and 2 μL of diluted compound were added into an optiplate-384-well plate, and reacted at room temperature for 24 h.
(§13) The plate was read using an MD i3x multi-mode microplate reader with the excitation and emission wavelengths of 340 nm and 665 nm, respectively. The intensity of light at a wavelength of 616 nm generated by europium excited by 340 nm wavelength light from the MD i3x multi-mode microplate reader was used as the background. According to the different activation degrees of different compounds against THRα and THRβ, the intensity of the emission light at a wavelength of 665 nm generated by exciting XL665 with the exciting light at a wavelength of 616 nm was varied. The intensity ratio between these two light wavelengths (665 nm, 616 nm) was used as the activation activity of the compound against THRα or THRβ, and was normalized against the ratio in the vehicle DMSO group. The dose-response curve was fitted with four parameters using the GraphPad Prism 6.0 software, and the EC50 value was calculated.

For assay [2], the target named is T3, THRα LBD (His-GST-dLBT-THRα LBD) (Homo sapiens, UniProt P10827).
T3 construct: made in house; host or cells: E. coli BL21 (DE3)
T3 sequence (P10827 163-407 isoform P10827-2): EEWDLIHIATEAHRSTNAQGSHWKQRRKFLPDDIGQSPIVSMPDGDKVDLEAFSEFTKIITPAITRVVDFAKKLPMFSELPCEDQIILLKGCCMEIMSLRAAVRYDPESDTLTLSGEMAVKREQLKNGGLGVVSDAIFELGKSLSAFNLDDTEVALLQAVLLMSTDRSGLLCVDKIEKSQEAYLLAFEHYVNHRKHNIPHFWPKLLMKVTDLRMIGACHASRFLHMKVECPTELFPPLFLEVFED
Description: THR-FRET (time-resolved fluorescence resonance energy transfer) agonist activity assay, THRα. The assay is classed as biochemical. The settings on record: 24 h at room temperature.
Text: as §1, §2, §3, §4, §5, §6, §7, §8, §9, §10, §11, §12, §13

With `Cc1nn(-c2cc(Br)c(Cn3ccc(=O)c4c(C)cccc43)c(Br)c2)c(=O)[nH]c1=O` [Compound 45], the “Selectivity (THRα/THRβ)” value on THRβ (pGAL4-THRβ-LBD) was “† (5 ≥ THRα/β)”; in assay [1] it was “†† (10 > THRα/β > 1)”. For the same compound, the EC50 in assay [1] was less than 50 nM; in assay [2] it was 100 to 1000 nM.

Take `Cc1nn(-c2cc(Cl)c(Cn3ccc(=O)c4c(C)cccc43)c(Br)c2)c(=O)[nH]c1=O` [Compound 46]: the “Selectivity (THRα/THRβ)” value at THRβ (pGAL4-THRβ-LBD) is “† (5 ≥ THRα/β)”; in assay [1], “†† (10 > THRα/β > 1)”. Moreover, the results for the EC50 in assay [1] and in assay [2] were less than 50 nM and 50 to 100 nM, respectively.

As to `Cc1cccc2c1c(=O)ccn2Cc1c(Cl)cc(-n2nc(C(F)F)c(=O)[nH]c2=O)cc1Cl` [Compound 47], the results for the “Selectivity (THRα/THRβ)” value (on THRβ (pGAL4-THRβ-LBD); in assay [1]) were “† (5 ≥ THRα/β)” and “†† (10 > THRα/β > 1)”, respectively. For the same compound, the EC50 in assay [1] is less than 50 nM; in assay [2] it was 100 to 1000 nM.

For the compound `Cc1cccc2c1c(=O)ccn2Cc1c(Cl)cc(-n2nc(C(F)F)c(=O)[nH]c2=O)cc1Br` [Compound 48], the “Selectivity (THRα/THRβ)” value at THRβ (pGAL4-THRβ-LBD) is given as “† (5 ≥ THRα/β)”; in assay [1] it was “†† (10 > THRα/β > 1)”. Moreover, the EC50 in assay [1] and in assay [2] was less than 50 nM throughout.

Regarding `Cc1cccc2c1c(=O)ccn2Cc1c(Br)cc(-n2nc(C(F)F)c(=O)[nH]c2=O)cc1Br` [Compound 49], the “Selectivity (THRα/THRβ)” value on THRβ (pGAL4-THRβ-LBD) is reported as “† (5 ≥ THRα/β)”; in assay [1], “†† (10 > THRα/β > 1)”. Besides, the EC50 in assay [1] and in assay [2] was 50 to 100 nM each time.

In the case of `[2H]C(F)(F)c1nn(-c2cc(Br)c(Cn3ccc(=O)c4ccccc43)c(Br)c2)c(=O)[nH]c1=O` [Compound 71], the “Selectivity (THRα/THRβ)” value on THRβ (pGAL4-THRβ-LBD) is “†††† (THRα/β > 20)”; in assay [1] it was “†† (10 > THRα/β > 1)”. In addition, the figures for the EC50 in assay [1] and in assay [2] were less than 50 nM and 50 to 100 nM, respectively.

With `[2H]C(c1c(Br)cc(-n2nc(C(F)F)c(=O)[nH]c2=O)cc1Br)n1ccc(=O)c2ccccc21` (stereo not shown) [Compound 72], the figures for the “Selectivity (THRα/THRβ)” value (at THRβ (pGAL4-THRβ-LBD); in assay [1]) were “††† (20 ≥ THRα/β > 10)” and “†† (10 > THRα/β > 1)”, respectively. In addition, the figures for the EC50 in assay [1] and in assay [2] were less than 50 nM and 50 to 100 nM, respectively.

A word on the EC50: it is the midpoint of the concentration-response curve.
